{"source": "patent USRE48461E1", "about": "“Modulation of androgen receptor expression” (Ionis Pharmaceuticals, Inc., priority 2012, dated 2021)", "key": {"AR mRNA [1]": {"tested_on": "AR mRNA", "experiment": "Antisense inhibition of human AR in HuVEC cells, single concentration (electroporation, qRT-PCR RTS3559)", "format": "cell-based", "in_short": "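AR mRNA levels were measured with human primer-probe set RTS3559 and adjusted for total RNA (RIBOGREEN). Cells were HuVEC, with each antisense oligonucleotide delivered by electroporation at one concentration.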"}, "AR mRNA [2]": {"tested_on": "AR mRNA", "experiment": "Dose-dependent antisense inhibition of human AR in HuVEC cells (electroporation, qRT-PCR RTS3559, IC50)", "format": "cell-based", "details": "HuVEC", "in_short": "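HuVEC cells dosed with antisense oligonucleotides by electroporation and treated approximately 16 hours. AR mRNA quantified by real-time qPCR with primer probe set RTS3559 and normalised to total RNA by RIBOGREEN; IC50 from dose-response.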"}, "[3]": {"details": "Table 32, electroporation, approximately 16 hours"}, "[4]": {"details": "Table 36, electroporation, approximately 16 hours"}, "[5]": {"details": "Table 20, 500 nM oligonucleotide, electroporation, approximately 24 hours, relative to untreated control"}, "[6]": {"details": "Table 33, electroporation, approximately 16 hours"}, "[7]": {"details": "Table 34, electroporation, approximately 16 hours"}, "[8]": {"details": "Table 29, electroporation, approximately 16 hours"}}, "note": "Oligonucleotides are written 5' to 3', each unit as a sugar letter and its base; * is a phosphorothioate linkage, no mark a phosphodiester; rarer units and linkages stand in square brackets, end groups in braces. Plain capitals give the bases only. e = 2'-O-(2-methoxyethyl) (MOE); k = constrained ethyl (cEt); [5mC] = 5-methylcytosine; d = 2'-deoxy (DNA)", "data": [{"substance": "583759 (antisense kG*k[5mC]*kT*dG*dT*dT*d[5mC]*d[5mC]*dT*d[5mC]*dA*dT*d[5mC]*k[5mC]*kA*kG) [compound 583759]", "values": [{"measurement": "% inhibition", "setting": "AR mRNA [1]; Table 19, 500 nM oligonucleotide, electroporation, approximately 24 hours, relative to untreated control", "result": 38, "unit": "%"}, {"measurement": "percent inhibition of AR, 46.9 nM", "setting": "AR mRNA [2]; [3]", "result": 5, "unit": "%"}, {"measurement": "percent inhibition of AR, 187.5 nM", "setting": "AR mRNA [2]; [3]", "result": 28, "unit": "%"}, {"measurement": "percent inhibition of AR, 750.0 nM", "setting": "AR mRNA [2]; [3]", "result": 61, "unit": "%"}, {"measurement": "percent inhibition of AR, 3000.0 nM", "setting": "AR mRNA [2]; [3]", "result": 67, "unit": "%"}, {"measurement": "IC50", "setting": "AR mRNA [2]; [3]", "result": 630, "unit": "nM"}]}, {"substance": "584329 (kG*kG*kT*dT*dA*dT*dG*dG*dT*dT*d[5mC]*dT*dG*kT*k[5mC]*kT; antisense) [compound 584329]", "values": [{"measurement": "% inhibition", "setting": "AR mRNA [1]; 1,000 nM ASO, ~24 h, Table 26", "result": 58, "unit": "%"}, {"measurement": "percent inhibition of AR, 46.9 nM", "setting": "AR mRNA [2]; [4]", "result": 0, "unit": "%"}, {"measurement": "percent inhibition of AR, 187.5 nM", "setting": "AR mRNA [2]; [4]", "result": 17, "unit": "%"}, {"measurement": "percent inhibition of AR, 750.0 nM", "setting": "AR mRNA [2]; [4]", "result": 67, "unit": "%"}, {"measurement": "percent inhibition of AR, 3000.0 nM", "setting": "AR mRNA [2]; [4]", "result": 86, "unit": "%"}, {"measurement": "IC50", "setting": "AR mRNA [2]; [4]", "result": 460, "unit": "nM"}]}, {"substance": "583847 (kA*k[5mC]*kA*dG*d[5mC]*dG*dG*dG*dT*dG*dG*dA*dA*k[5mC]*kT*k[5mC]; antisense) [compound 583847]", "values": [{"measurement": "% inhibition", "setting": "AR mRNA [1]; [5]", "result": 34, "unit": "%"}, {"measurement": "percent inhibition of AR, 46.9 nM", "setting": "AR mRNA [2]; [6]", "result": 8, "unit": "%"}, {"measurement": "percent inhibition of AR, 187.5 nM", "setting": "AR mRNA [2]; [6]", "result": 30, "unit": "%"}, {"measurement": "percent inhibition of AR, 750.0 nM", "setting": "AR mRNA [2]; [6]", "result": 60, "unit": "%"}, {"measurement": "percent inhibition of AR, 3000.0 nM", "setting": "AR mRNA [2]; [6]", "result": 84, "unit": "%"}, {"measurement": "IC50", "setting": "AR mRNA [2]; [6]", "result": 460, "unit": "nM"}]}, {"substance": "583922 (kA*kG*kT*dT*dG*dT*dA*dG*dT*dA*dG*dT*d[5mC]*kG*k[5mC]*kG; antisense) [compound 583922]", "values": [{"measurement": "% inhibition", "setting": "AR mRNA [1]; Table 21, 500 nM oligonucleotide, electroporation, approximately 24 hours, relative to untreated control", "result": 37, "unit": "%"}, {"measurement": "percent inhibition of AR, 46.9 nM", "setting": "AR mRNA [2]; [7]", "result": 16, "unit": "%"}, {"measurement": "percent inhibition of AR, 187.5 nM", "setting": "AR mRNA [2]; [7]", "result": 43, "unit": "%"}, {"measurement": "percent inhibition of AR, 750.0 nM", "setting": "AR mRNA [2]; [7]", "result": 76, "unit": "%"}, {"measurement": "percent inhibition of AR, 3000.0 nM", "setting": "AR mRNA [2]; [7]", "result": 92, "unit": "%"}, {"measurement": "IC50", "setting": "AR mRNA [2]; [7]", "result": 230, "unit": "nM"}]}, {"substance": "549361 (kG*kA*k[5mC]*dA*d[5mC]*d[5mC]*dG*dA*d[5mC]*dA*d[5mC]*dT*dG*k[5mC]*k[5mC]*kT; antisense) [compound 549361]", "values": [{"measurement": "% inhibition", "setting": "AR mRNA [1]; 500 nM ASO, electroporation, ~24 h, Table 1", "result": 84, "unit": "%"}, {"measurement": "percent inhibition of AR", "setting": "AR mRNA [2]; 55.6 nM, ~16 h, Table 3", "result": 12, "unit": "%"}, {"measurement": "percent inhibition of AR", "setting": "AR mRNA [2]; 166.7 nM, ~16 h, Table 3", "result": 30, "unit": "%"}, {"measurement": "percent inhibition of AR", "setting": "AR mRNA [2]; 500.0 nM, ~16 h, Table 3", "result": 52, "unit": "%"}, {"measurement": "percent inhibition of AR", "setting": "AR mRNA [2]; 1500.0 nM, ~16 h, Table 3", "result": 66, "unit": "%"}, {"measurement": "IC50", "setting": "AR mRNA [2]; ~16 h, Table 3", "result": 525, "unit": "nM"}]}, {"substance": "583608 (antisense kG*k[5mC]*kT*dA*dG*d[5mC]*dT*d[5mC]*dG*d[5mC]*d[5mC]*d[5mC]*dG*k[5mC]*kT*k[5mC]) [compound 583608]", "values": [{"measurement": "% inhibition", "setting": "AR mRNA [1]; 500 nM ASO, ~24 h, Table 17", "result": 51, "unit": "%"}, {"measurement": "percent inhibition of AR, 46.9 nM", "setting": "AR mRNA [2]; [8]", "result": 12, "unit": "%"}, {"measurement": "percent inhibition of AR, 187.5 nM", "setting": "AR mRNA [2]; [8]", "result": 46, "unit": "%"}, {"measurement": "percent inhibition of AR, 750.0 nM", "setting": "AR mRNA [2]; [8]", "result": 67, "unit": "%"}, {"measurement": "percent inhibition of AR, 3000.0 nM", "setting": "AR mRNA [2]; [8]", "result": 76, "unit": "%"}, {"measurement": "IC50", "setting": "AR mRNA [2]; [8]", "result": 350, "unit": "nM"}]}, {"substance": "583893 (kA*kG*k[5mC]*dA*dG*d[5mC]*d[5mC]*dT*dA*dG*dG*d[5mC]*dT*k[5mC]*kT*k[5mC]; antisense) [compound 583893]", "values": [{"measurement": "% inhibition", "setting": "AR mRNA [1]; [5]", "result": 34, "unit": "%"}, {"measurement": "percent inhibition of AR, 46.9 nM", "setting": "AR mRNA [2]; [6]", "result": 15, "unit": "%"}, {"measurement": "percent inhibition of AR, 187.5 nM", "setting": "AR mRNA [2]; [6]", "result": 35, "unit": "%"}, {"measurement": "percent inhibition of AR, 750.0 nM", "setting": "AR mRNA [2]; [6]", "result": 62, "unit": "%"}, {"measurement": "percent inhibition of AR, 3000.0 nM", "setting": "AR mRNA [2]; [6]", "result": 79, "unit": "%"}, {"measurement": "IC50", "setting": "AR mRNA [2]; [6]", "result": 420, "unit": "nM"}]}, {"substance": "569220 (antisense eA*kT*kG*kG*dT*dT*dG*dA*dT*dT*dT*dA*kA*kT*kG*eG) [compound 569220]", "values": [{"measurement": "% inhibition", "setting": "AR mRNA [1]; 1,000 nM ASO, ~24 h, Table 13", "result": 58, "unit": "%"}, {"measurement": "percent inhibition of AR", "setting": "AR mRNA [2]; 31.25 nM, ~16 h, Table 14", "result": 11, "unit": "%"}, {"measurement": "percent inhibition of AR", "setting": "AR mRNA [2]; 62.5 nM, ~16 h, Table 14", "result": 29, "unit": "%"}, {"measurement": "percent inhibition of AR", "setting": "AR mRNA [2]; 125.0 nM, ~16 h, Table 14", "result": 34, "unit": "%"}, {"measurement": "percent inhibition of AR", "setting": "AR mRNA [2]; 500.0 nM, ~16 h, Table 14", "result": 59, "unit": "%"}, {"measurement": "percent inhibition of AR", "setting": "AR mRNA [2]; 1000.0 nM, ~16 h, Table 14", "result": 78, "unit": "%"}, {"measurement": "IC50", "setting": "AR mRNA [2]; ~16 h, Table 14", "result": 275, "unit": "nM"}]}, {"substance": "583662 (antisense kA*kG*kA*dA*dG*dA*d[5mC]*dA*d[5mC]*dA*d[5mC]*dG*dG*kT*kG*kG) [compound 583662]", "values": [{"measurement": "% inhibition", "setting": "AR mRNA [1]; 500 nM ASO, ~24 h, Table 17", "result": 51, "unit": "%"}, {"measurement": "percent inhibition of AR, 46.9 nM", "setting": "AR mRNA [2]; [8]", "result": 27, "unit": "%"}, {"measurement": "percent inhibition of AR, 187.5 nM", "setting": "AR mRNA [2]; [8]", "result": 59, "unit": "%"}, {"measurement": "percent inhibition of AR, 750.0 nM", "setting": "AR mRNA [2]; [8]", "result": 75, "unit": "%"}, {"measurement": "percent inhibition of AR, 3000.0 nM", "setting": "AR mRNA [2]; [8]", "result": 75, "unit": "%"}, {"measurement": "IC50", "setting": "AR mRNA [2]; [8]", "result": 150, "unit": "nM"}]}]}
